Reference: patent US20230085307A1, “PYRIDAZINONE COMPOUND AND HERBICIDE” (NISSAN CHEMICAL CORPORATION, priority 2019, published 2023)

Assays:
[1] = test system: blackgrass; assay: Test Example 5: herbicidal effect by foliage application, plastic box (Table 20, symbol J); type: in vivo, blackgrass (Alopecurus myosuroides); conditions: foliage application, three weeks after application
Outline: (§1)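 Foliar spray test: emulsion formulation diluted in water to a set application rate, sprayed onto 14-day-old plants raised in diluvial soil at 25° C to 30° C under glass. Both herbicidal effect and crop effect rated visually three weeks later.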

[2] = test system: green foxtail; assay: Test Example 5: herbicidal effect by foliage application, plastic box (Table 20, symbol G); type: in vivo, green foxtail (Setaria viridis); conditions: foliage application, three weeks after application
Outline: as §1

[3] = test system: velvetleaf; assay: Test Example 5: herbicidal effect by foliage application, plastic box (Table 20, symbol M); type: in vivo, velvetleaf (Abutilon theophrasti); conditions: foliage application, three weeks after application
Outline: as §1

[4] = test system: lambsquarters; assay: Test Example 5: herbicidal effect by foliage application, plastic box (Table 20, symbol O); type: in vivo, lambsquarters (Chenopodium album); conditions: foliage application, three weeks after application
Outline: as §1

[5] = test system: Japanese bulrush; assay: Test Example 1: herbicidal activity, application before weed generation under submerged conditions (Table 16, symbol B); type: in vivo, Japanese bulrush (Schoenoplectus juncoides)
Outline: (§2)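 Alluvial soil was flooded to 4 cm depth, weed seeds were sown mixed and 2.5-leaf rice seedlings were transplanted. On sowing day, the compound's emulsion, diluted in water to a set dose, was applied to the water surface. Plants grew at 25–30 °C and were scored 0–5 after three weeks.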

[6] = test system: barnyard grass; assay: Test Example 5: herbicidal effect by foliage application, plastic box (Table 20, symbol H); type: in vivo, barnyard grass (Echinochloa crus-galli); conditions: foliage application, three weeks after application
Outline: as §1

[7] = test system: Chinese sprangletop; assay: Test Example 3: herbicidal effect by foliage application, Wagner pot (Table 18, symbol D); type: in vivo, chinese sprangletop (Leptochloa chinensis)
Outline: (§3)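 Plants were sown in alluvial soil held under 0.1–0.5 cm standing water and grown 14 days in a greenhouse at 25–30 °C. An emulsifiable formulation, water-diluted to the set dose, was then sprayed onto the foliage, and effects were scored three weeks later using previously defined criteria.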

[8] = test system: windgrass; assay: Test Example 5: herbicidal effect by foliage application, plastic box (Table 20, symbol L); type: in vivo, windgrass (Apera spica-venti); conditions: foliage application, three weeks after application
Outline: as §1

[9] = test system: late watergrass; assay: Test Example 1: herbicidal activity, application before weed generation under submerged conditions (Table 16, symbol A); type: in vivo, late watergrass (Echinochloa oryzicola)
Outline: as §2

[10] = test system: Italian ryegrass; assay: Test Example 5: herbicidal effect by foliage application, plastic box (Table 20, symbol K); type: in vivo, Italian ryegrass (Lolium multiflorum); conditions: foliage application, three weeks after application
Outline: as §1

[11] = test system: false cleavers; assay: Test Example 5: herbicidal effect by foliage application, plastic box (Table 20, symbol Q); type: in vivo, false cleavers (Galium spurium); conditions: foliage application, three weeks after application
Outline: as §1

[12] = test system: wild oat; assay: Test Example 5: herbicidal effect by foliage application, plastic box (Table 20, symbol I); type: in vivo, wild oat (Avena fatua); conditions: foliage application, three weeks after application
Outline: as §1

[13] = test system: oval-leafed pondweed; assay: Test Example 1: herbicidal activity, application before weed generation under submerged conditions (Table 16, symbol C); type: in vivo, oval-leafed pondweed (Monochoria vaginalis)
Outline: as §2

[14] = test system: rice flat sedge; assay: Test Example 3: herbicidal effect by foliage application, Wagner pot (Table 18, symbol E); type: in vivo, rice flat sedge (Cyperus iria)
Outline: as §3

[15] = test system: barnyard grass; assay: Test Example 3: herbicidal effect by foliage application, Wagner pot (Table 18, symbol H); type: in vivo, barnyard grass (Echinochloa crus-galli)
Outline: as §3

[16] = test system: chickweed; assay: Test Example 5: herbicidal effect by foliage application, plastic box (Table 20, symbol P); type: in vivo, common chickweed (Stellaria media); conditions: foliage application, three weeks after application
Outline: as §1

[17] = test system: persian speedwell; assay: Test Example 5: herbicidal effect by foliage application, plastic box (Table 20, symbol R); type: in vivo, Persian speedwell (Veronica persica); conditions: foliage application, three weeks after application
Outline: as §1

[18] = test system: redroot pigweed; assay: Test Example 5: herbicidal effect by foliage application, plastic box (Table 20, symbol N); type: in vivo, redroot pigweed (Amaranthus retroflexus); conditions: foliage application, three weeks after application
Outline: as §1

[19] = test system: southern crabgrass; assay: Test Example 5: herbicidal effect by foliage application, plastic box (Table 20, symbol F); type: in vivo, southern crabgrass (Digitaria ciliaris); conditions: foliage application, three weeks after application
Outline: as §1

[20] = amount of applied herbicide 49 g/ha
[21] = amount of applied herbicide 45 g/ha

## Cc1nn(C)c(=O)c(-c2c(-c3ccccc3OCC3CC3(F)F)sc3ccccc23)c1O (centres unmarked) [1-120]
[1]; AAH 320 g/ha
  J: blackgrass, herbicidal effect: 2 (Herbicidal rate of 20% or more and less than 40%)
[2]; AAH 320 g/ha
  G: green foxtail, herbicidal effect: 0 (Herbicidal rate of 5% or less (almost no effect))
[3]; AAH 320 g/ha
  M: velvetleaf, herbicidal effect: 0 (Herbicidal rate of 5% or less (almost no effect))
[4]; AAH 320 g/ha
  O: lambsquarters, herbicidal effect: 0 (Herbicidal rate of 5% or less (almost no effect))
[5]; 320 g/ha applied herbicide
  Herbicidal effect on B: Japanese bulrush (grade 0-5): 0 (Herbicidal rate of 5% or less (almost no effect))
[6]; AAH 320 g/ha
  H: barnyard grass, herbicidal effect: 0 (Herbicidal rate of 5% or less (almost no effect))
[7]; 320 g/ha
  herbicidal effect on D (Chinese sprangletop), rating 0-5: 0 (Herbicidal rate of 5% or less (almost no effect))
[8]; AAH 320 g/ha
  L: windgrass, herbicidal effect: 0 (Herbicidal rate of 5% or less (almost no effect))
[9]; 320 g/ha applied herbicide
  Herbicidal effect on A: late watergrass (grade 0-5): 3 (Herbicidal rate of 40% or more and less than 70%)
[10]; AAH 320 g/ha
  K: Italian ryegrass, herbicidal effect: 0 (Herbicidal rate of 5% or less (almost no effect))
[11]; AAH 320 g/ha
  Q: false cleavers, herbicidal effect: 3 (Herbicidal rate of 40% or more and less than 70%)
[12]; AAH 320 g/ha
  I: wild oat, herbicidal effect: 0 (Herbicidal rate of 5% or less (almost no effect))
[13]; 320 g/ha applied herbicide
  Herbicidal effect on C: oval-leafed pondweed (grade 0-5): 0 (Herbicidal rate of 5% or less (almost no effect))
[14]; 320 g/ha
  herbicidal effect on E (rice flat sedge), rating 0-5: 2 (Herbicidal rate of 20% or more and less than 40%)
[15]; 320 g/ha
  herbicidal effect on H (barnyard grass), rating 0-5: 3 (Herbicidal rate of 40% or more and less than 70%)
[16]; AAH 320 g/ha
  P: chickweed, herbicidal effect: 4 (Herbicidal rate of 70% or more and less than 90%)
[17]; AAH 320 g/ha
  R: persian speedwell, herbicidal effect: 5 (Herbicidal rate of 90% or more (almost completely withered))
[18]; AAH 320 g/ha
  N: redroot pigweed, herbicidal effect: 0 (Herbicidal rate of 5% or less (almost no effect))
[19]; AAH 320 g/ha
  F: southern crabgrass, herbicidal effect: 0 (Herbicidal rate of 5% or less (almost no effect))

## CCCC(=O)Oc1c(C)nn(C)c(=O)c1-c1c(-c2ccc(C(C)=NOC)cc2)sc2cc(F)ccc12 [3-018]
[1]; 45 g/ha
  J: blackgrass, herbicidal effect grade: 0 (Herbicidal rate of 5% or less (almost no effect))
[2]; 45 g/ha
  G: green foxtail, herbicidal effect grade: 0 (Herbicidal rate of 5% or less (almost no effect))
[3]; 45 g/ha
  M: velvetleaf, herbicidal effect grade: 0 (Herbicidal rate of 5% or less (almost no effect))
[4]; 45 g/ha
  O: lambsquarters, herbicidal effect grade: 1 (Herbicidal rate of 5% or more and less than 20%)
[5]; [20]
  Herbicidal effect, B: Japanese bulrush: 2 (Herbicidal rate of 20% or more and less than 40%)
[6]; 45 g/ha
  H: barnyard grass, herbicidal effect grade: 0 (Herbicidal rate of 5% or less (almost no effect))
[7]; [21]
  herbicidal effect on D: Chinese sprangletop: 0 (Herbicidal rate of 5% or less (almost no effect))
[8]; 45 g/ha
  L: windgrass, herbicidal effect grade: 0 (Herbicidal rate of 5% or less (almost no effect))
[9]; [20]
  Herbicidal effect, A: late watergrass: 3 (Herbicidal rate of 40% or more and less than 70%)
[10]; 45 g/ha
  K: Italian ryegrass, herbicidal effect grade: 0 (Herbicidal rate of 5% or less (almost no effect))
[11]; 45 g/ha
  Q: false cleavers, herbicidal effect grade: 0 (Herbicidal rate of 5% or less (almost no effect))
[12]; 45 g/ha
  I: wild oat, herbicidal effect grade: 0 (Herbicidal rate of 5% or less (almost no effect))
[13]; [20]
  Herbicidal effect, C: oval-leafed pondweed: 0 (Herbicidal rate of 5% or less (almost no effect))
[14]; [21]
  herbicidal effect on E: rice flat sedge: 2 (Herbicidal rate of 20% or more and less than 40%)
[15]; [21]
  herbicidal effect on H: barnyard grass: 3 (Herbicidal rate of 40% or more and less than 70%)
[16]; 45 g/ha
  P: chickweed, herbicidal effect grade: 1 (Herbicidal rate of 5% or more and less than 20%)
[17]; 45 g/ha
  R: persian speedwell, herbicidal effect grade: 3 (Herbicidal rate of 40% or more and less than 70%)
[18]; 45 g/ha
  N: redroot pigweed, herbicidal effect grade: 3 (Herbicidal rate of 40% or more and less than 70%)
[19]; 45 g/ha
  F: southern crabgrass, herbicidal effect grade: 0 (Herbicidal rate of 5% or less (almost no effect))
